Reference: patent publication US20250215039A1, “NUCLEOSIDES FOR TREATING CANCER” (PRIMEFOUR THERAPEUTICS, INC., priority 2022, published 2025)
pIC50: −log10 of the molar value. Like-named read-outs stand apart in the source and are kept apart here.

System: cancer cell lines
Assay: Cancer cell proliferation activity (CellTiterGlo, 72 h)
Format: cell-based
Conditions: 72 h, 72 h, read-out: IC50
Protocol: Dose response relationships on cell proliferation was assessed for representative Compounds of the Disclosure on cancer cell lines. Briefly, compound treatment of cells started one day after seeding with a final DMSO concentration of 0.1%, and was performed by nanodrop-dispensing using a Tecan Dispenser. 0.1% DMSO (solvent) and Staurosporine (10 μM) served as high control (100% viability) and low control (0% viability), respectively.
Cells were cultured in the appropriate media. For the assays, cells were seeded in white cell culture-treated flat and clear bottom multiwell plates and incubated at 37° C. overnight before compound was added. After incubation for 72 h at 37° C. at 5% or 10% CO2 dependent on the medium, cell plates were equilibrated to room temperature for one hour, CellTiterGlo reagent (Promega) was added and luminescence was measured approximately an hour later using a luminometer.
Raw data were converted into percent cell viability relative to the high and low control, which were set to 100% and 0%, respectively.
The IC50 values are summarized in Tables 9A-1, Table 10A, and Table 10B.

C[C@]1(CO)O[C@@H](n2cc(F)c(=O)[nH]c2=O)C[C@@H]1O [Cpd. No. 105, 5-fluoro-1-((2R,4S,5R)-4-hydroxy-5-(hydroxymethyl)-5-methyltetrahydrofuran-2-yl)pyrimidine-2,4(1H,3H)-dione]
pIC50 (5637 cell line (bladder)): 6.13 | pIC50 (CLS439 cell line (bladder)): < 4.30 | pIC50 (HS729 cell line (muscle)): 5.86 | pIC50 (HSS78T cell line): < 4.30 | pIC50 (JAR cell line (placenta)): 5.23 | pIC50 (SKMELS cell line): 5.29 | pIC50 (Homo sapiens, 22Rv1, 72 h, 22RV1 cell line (prostate)): 6.51 | pIC50 (Homo sapiens, 786-0, 72 h, 786O cell line (kidney)): 5.60 | pIC50 (Homo sapiens, A204, 72 h, A204 cell line (muscle)): 5.59 | pIC50 (Homo sapiens, A549, 72 h, A549 cell line): 6.28 | pIC50 (Homo sapiens, A673, 72 h, A673 cell line (bone)): 5.55 | pIC50 (Homo sapiens, A2780, 72 h, A2780 cell line (ovary)): 5.46 | pIC50 (Homo sapiens, A-375, 72 h, A375 cell line (skin)): 5.45 | pIC50 (Homo sapiens, A-431, 72 h, A431 cell line (skin)): 7.30 | pIC50 (Homo sapiens, ACHN, ACHN cell line (kidney)): 6.57 | pIC50 (Homo sapiens, ASPC1, 72 h, ASPC1 cell line (pancreas)): 6.80 | pIC50 (Homo sapiens, BT-20, 72 h, BT20 cell line (breast)): < 4.30 | pIC50 (Homo sapiens, BXPC-3, 72 h, BXPC3 cell line (pancreas)): 7.70 | pIC50 (Homo sapiens, C-33-A, C33A cell line (cervical)): 5.80 | pIC50 (Homo sapiens, CAKI-1, 72 h, CAKI1 cell line (kidney)): < 4.30 | pIC50 (Homo sapiens, COLO 205, 72 h, COLO205 cell line (colon)): 6.51 | pIC50 (Homo sapiens, COLO-678, 72 h, COLO678 cell line (colon)): < 4.30 | pIC50 (Homo sapiens, Ca-Ski, CASKI cell line (cervical)): 5.61 | pIC50 (Homo sapiens, Caco-2, 72 h, CACO2 cell line (colon)): < 4.30 | pIC50 (Homo sapiens, Calu-6, 72 h, CALU6 cell line (lung)): 5.77 | pIC50 (Homo sapiens, DLD-1, 72 h, DLD1 cell line (colon)): 5.43 | pIC50 (Homo sapiens, DU-145, 72 h, DU145 cell line (prostate)): 6.00 | pIC50 (Homo sapiens, EFO-21, 72 h, EFO21 cell line (ovary)): 5.56 | pIC50 (Homo sapiens, EJ-28, 72 h, EJ28 cell line (bladder)): 5.76 | pIC50 (Homo sapiens, Granta-519, 72 h, GRANTA-519 cell line (hematological)): 6.19 | pIC50 (Homo sapiens, HCT-15, 72 h, HCT15 cell line (colon)): 5.53 | pIC50 (Homo sapiens, HCT-116, 72 h, HCT116 cell line (colon)): 5.26 | pIC50 (Homo sapiens, HEK293, 72 h, HEK293 cell line (kidney)): 5.36 | pIC50 (Homo sapiens, HL-60, 72 h, HL-60 cell line (hematological)): 5.41 | pIC50 (Homo sapiens, HT-29, 72 h, HT29 cell line (colon)): 6.28 | pIC50 (Homo sapiens, HT-1080, 72 h, HT1080 cell line (connective tissue)): 5.57 | pIC50 (Homo sapiens, HeLa, HELA cell line (cervical)): < 4.30 | pIC50 (Homo sapiens, HepG2, 72 h, HEPG2 cell line (liver)): 6.11 | pIC50 (Homo sapiens, IGROV-1, 72 h, IGROV1 cell line (ovary)): 5.52 | pIC50 (Homo sapiens, IMR-90, 72 h, IMR.90 cell line): < 4.30 | pIC50 (Homo sapiens, J82, 72 h, J82 cell line (bladder)): 6.00 | pIC50 (Homo sapiens, JEG-3, 72 h, JEG3 cell line (placenta)): 5.93 | pIC50 (Homo sapiens, JIMT-1, 72 h, JIMT1 cell line (breast)): 5.14 | pIC50 (Homo sapiens, K562, 72 h, K-562 cell line (hematological)): 5.23 | pIC50 (Homo sapiens, Kasumi 1, 72 h, KASUMI-1 cell line (hematological)): < 4.30 | pIC50 (Homo sapiens, L-363, 72 h, L-363 cell line (hematological)): 5.55 | pIC50 (Homo sapiens, LoVo, LOVO cell line (colon)): 6.29 | pIC50 (Homo sapiens, MCF7, 72 h, MCF7 cell line (breast)): 6.77 | pIC50 (Homo sapiens, MDA-MB-231, 72 h, MDAMB231 cell line (breast)): < 4.30 | pIC50 (Homo sapiens, MDA-MB-435, 72 h, MDAMB435 cell line (skin)): 5.61 | pIC50 (Homo sapiens, MDA-MB-436, 72 h, MDAMB436 cell line (breast)): 6.38 | pIC50 (Homo sapiens, MDA-MB-468, 72 h, MDAMB468 cell line (breast)): 5.54 | pIC50 (Homo sapiens, MG-63, 72 h, MG63 cell line (bone)): 5.74 | pIC50 (Homo sapiens, MHH-ES-1, 72 h, MHHES1 cell line (bone)): 5.64 | pIC50 (Homo sapiens, MIA PaCa-2, 72 h, MIAPACA2 cell line (pancreas)): 5.61 | pIC50 (Homo sapiens, MINO, MINO cell line (hematological)): 6.24 | pIC50 (Homo sapiens, MV4-11, 72 h, MV4-11 cell line (hematological)): 6.74 | pIC50 (Homo sapiens, NCI-H23, 72 h, NCI-H23 cell line (lung)): 5.85 | pIC50 (Homo sapiens, NCI-H82, 72 h, NCIH82 cell line (lung)): 5.34 | pIC50 (Homo sapiens, NCI-H292, 72 h, NCIH292 cell line (lung)): < 4.30 | pIC50 (Homo sapiens, NCI-H460, 72 h, NCIH460 cell line (lung)): 6.22 | pIC50 (Homo sapiens, OVCAR-3, 72 h, OVCAR3 cell line (ovary)): 5.23 | pIC50 (Homo sapiens, OVCAR-4, 72 h, OVCAR4 cell line (ovary)): 5.55 | pIC50 (Homo sapiens, PANC-1, 72 h, PANC1 cell line (pancreas)): 5.30 | pIC50 (Homo sapiens, PC-3, 72 h, PC3 cell line (prostate)): 5.09 | pIC50 (Homo sapiens, PLC-PRF-5, 72 h, PLCPRF5 cell line (liver)): 5.76 | pIC50 (Homo sapiens, Panc1005, 72 h, PANC1005 cell line (pancreas)): < 4.30 | pIC50 (Homo sapiens, RD, RD cell line (muscle)): 5.46 | pIC50 (Homo sapiens, Ramos, RAMOS cell line (hematological)): 5.50 | pIC50 (Homo sapiens, SAOS-2, 72 h, SAOS2 cell line (bone)): 5.94 | pIC50 (Homo sapiens, SF-268, 72 h, SF268 cell line (brain)): 5.97 | pIC50 (Homo sapiens, SF-295, 72 h, SF295 cell line (brain)): 5.92 | pIC50 (Homo sapiens, SK-BR-3, 72 h, SKBR3 cell line (breast)): 7.40 | pIC50 (Homo sapiens, SK-HEP1, 72 h, SKHEP1 cell line (liver)): 5.87 | pIC50 (Homo sapiens, SK-LMS-1, 72 h, SKLMS1 cell line (uterus)): 5.94 | pIC50 (Homo sapiens, SK-MEL-28, 72 h, SKMEL28 cell line (skin)): < 4.30 | pIC50 (Homo sapiens, SK-N-AS, SKNAS cell line (brain)): < 4.30 | pIC50 (Homo sapiens, SK-N-SH, SKNSH cell line (brain)): < 4.30 | pIC50 (Homo sapiens, SK-OV-3, 72 h, SKOV3 cell line (ovary)): 6.09 | pIC50 (Homo sapiens, SNB-75, 72 h, SNB75 cell line (brain)): < 4.30 | pIC50 (Homo sapiens, SU-DHL10, 72 h, SU-DHL-10 cell line (hematological)): 5.31 | pIC50 (Homo sapiens, SU-DHL-6, 72 h, SU-DHL-6 cell line (hematological)): 5.26 | pIC50 (Homo sapiens, SW-620, 72 h, SW620 cell line (colon)): 6.41 | pIC50 (Homo sapiens, T-24, 72 h, T24 cell line (bladder)): 5.55 | pIC50 (Homo sapiens, TE-671, 72 h, TE671 cell line (muscle)): 5.23 | pIC50 (Homo sapiens, THP-1, 72 h, THP-1 cell line (hematological)): 5.77 | pIC50 (Homo sapiens, U2OS, U2OS cell line (bone)): < 4.30 | pIC50 (Homo sapiens, U-87 MG, U87MG cell line (brain)): < 4.30 | pIC50 (Homo sapiens, UMUC3, 72 h, UMUC3 cell line (bladder)): 5.61 | pIC50 (Homo sapiens, UO-31, 72 h, UO31 cell line (kidney)): < 4.30 | pIC50 (Homo sapiens, WSU-NHL, WSU-NHL cell line (hematological)): 6.21 | pIC50 (MT-3, 72 h, MT3 cell line (breast)): 6.05 | pIC50 (NCI-H358M, NCIH358M cell line (lung)): 5.87 | pIC50 (PBMC, PBMC (hematological)): 5.30 | pIC50 (RD-ES, RDES cell line (bone)): 5.89
